Laboratory results published in US20210047304A1, “Bromodomain Inhibitors” (AbbVie Inc., priority 2016, published 2021).

The molecules below were run against BRD4 (BDI_K57-E168) (Homo sapiens, UniProt O60885) (assay: TR-FRET bromodomain binding assay, BRD4 BDI).
Experimental: A time-resolved fluorescence resonance energy transfer (TR-FRET) assay was used to determine the affinities of compounds of the Examples listed in Table 1 for each bromodomain of BRD4. […] An Alexa647-labeled BET-inhibitor was used as the fluorescent probe in the assay.
(§1) Compound dilution series were prepared in DMSO via an approximately 3-fold serial dilution. Compound dilutions were added directly into white, low-volume assay plates (Perkin Elmer Proxiplate 384 Plus #6008280) using a Labcyte Echo in conjunction with Labcyte Access and Thermo Multidrop CombinL robotics. Compounds were then suspended in eight microliters (μL) of assay buffer (20 mM Sodium Phosphate, pH 6.0, 50 mM NaCl, 1 mM Ethylenediaminetetraacetic acid disodium salt dihydrate, 0.01% Triton X-100, 1 mM DL-Dithiothreitol) containing His-tagged bromodomain, Europium-conjugated anti-His antibody (Invitrogen PV5596) and Alexa-647-conjugated probe.
After a one-hour equilibration at room temperature, TR-FRET ratios were determined using an Envision multilabel plate reader (Ex 340, Em 495/520).
TR-FRET data were normalized to the means of 24 no-compound controls (“high”) and 8 controls containing 1 μM un-labeled probe (“low”). Percent inhibition was plotted as a function of compound concentration and the data were fit with the 4 parameter logistic equation to obtain IC50s. Inhibition constants (Ki) were calculated from the IC50s, probe Kd and probe concentration.
Compound dilution series for Compounds A-E were prepared in DMSO via an approximately 3-fold serial dilution from 0.47 mM to 7.8 nM.
as §1, with “Compound” for “Compound dilution series were prepared in DMSO via an approximately 3-fold serial dilution. Compound”
TR-FRET data were normalized to the means of 24 no-compound controls (“high”) and 8 controls containing 1 μM un-labeled probe (“low”). Percent inhibition was plotted as a function of compound concentration and the data were fit with the 4 parameter logistic equation to obtain IC50s. Inhibition constants (Ki) were calculated from the IC50s, probe Kd and probe concentration. Typical Z′ values were between 0.65 and 0.75. The minimum significant ratio was determined to evaluate assay reproducibility (Eastwood et al., (2006) J Biomol Screen, 11: 253-261). The MSR was determined to be 2.03 for BDI and 1.93 for BDII, and a moving MSR (last six run MSR overtime) for both BDI and BDII was typically <3.

Question: How did the Ki turn out when `Cc1cc(F)cc(C)c1Oc1ccc(C(C)(C)O)cc1-c1cn(C)c(=O)cc1O[C@H]1CC[C@H](N2C(=O)CCC2C)CC1` (relative stereo) [Example 42, 5-[2-(4-fluoro-2,6-dimethylphenoxy)-5-(2-hydroxypropan-2-yl)phenyl]-1-methyl-4-{[trans-4-(2-methyl-5-oxopyrrolidin-1-yl)cyclohexyl]oxy}pyridin-2(1H)-one] was run?
Answer: 3.84 µM

Question: `Cc1cc(F)cc(C)c1Oc1ccc(C(C)(C)O)cc1-c1cn(C)c(=O)cc1O[C@H]1CC[C@H](NC(=O)C23CC(NC(=O)OC(C)(C)C)(C2)C3)CC1` (relative stereo) [Example 72, tert-butyl (3-{[trans-4-({5-[2-(4-fluoro-2,6-dimethylphenoxy)-5-(2-hydroxypropan-2-yl)phenyl]-1-methyl-2-oxo-1,2-dihydropyridin-4-yl}oxy)cyclohexyl]carbamoyl}bicyclo[1.1.1]pentan-1-yl)carbamate] was tested. Which Ki did it give?
Answer: > 13 µM

Question: `Cc1cc(F)cc(C)c1Oc1ccc(C(C)(C)O)cc1-c1cn(C)c(=O)cc1O[C@H]1CC[C@H](NC(=O)C23CC(C2)C3)CC1` (relative stereo) [Example 86, N-[trans-4-({5-[2-(4-fluoro-2,6-dimethylphenoxy)-5-(2-hydroxypropan-2-yl)phenyl]-1-methyl-2-oxo-1,2-dihydropyridin-4-yl}oxy)cyclohexyl]bicyclo[1.1.1]pentane-1-carboxamide] was tested. Which Ki did it give?
Answer: 1.74 µM

Question: Which Ki does the source give for `Cc1cc(F)cc(C)c1Oc1ccc(C(C)(C)O)cc1-c1cn(C)c(=O)cc1O[C@H]1CC[C@H](NC(=O)C23CC(N)(C2)C3)CC1` (relative stereo) [Example 93, 3-amino-N-[trans-4-({5-[2-(4-fluoro-2,6-dimethylphenoxy)-5-(2-hydroxypropan-2-yl)phenyl]-1-methyl-2-oxo-1,2-dihydropyridin-4-yl}oxy)cyclohexyl]bicyclo[1.1.1]pentane-1-carboxamide] here?
Answer: 1.19 µM

Question: For `Cc1cc(F)cc(C)c1Oc1ccc(C(C)(C)O)cc1-c1cn(C)c(=O)cc1O[C@H]1CC[C@H](NC(=O)C23CCC(NC(=O)OC(C)(C)C)(C2)C3)CC1` (relative stereo) [Example 103, tert-butyl (4-{[trans-4-({5-[2-(4-fluoro-2,6-dimethylphenoxy)-5-(2-hydroxypropan-2-yl)phenyl]-1-methyl-2-oxo-1,2-dihydropyridin-4-yl}oxy)cyclohexyl]carbamoyl}bicyclo[2.1.1]hexan-1-yl)carbamate], which Ki is on record?
Answer: 8.01 µM

Question: How did the Ki turn out when `Cc1cc(F)cc(C)c1Oc1ccc(C(C)(C)O)cc1-c1cn(C)c(=O)cc1O[C@H]1CC[C@H](NC(=O)C23CCC(CO)(CC2)CC3)CC1` (relative stereo) [Example 110, N-[trans-4-({5-[2-(4-fluoro-2,6-dimethylphenoxy)-5-(2-hydroxypropan-2-yl)phenyl]-1-methyl-2-oxo-1,2-dihydropyridin-4-yl}oxy)cyclohexyl]-4-(hydroxymethyl)bicyclo[2.2.2]octane-1-carboxamide] was run?
Answer: 3.65 µM

Question: `Cc1cc(F)cc(C)c1Oc1ccc(C(C)(C)O)cc1-c1cn(C)c(=O)cc1O[C@H]1CC[C@H](N2C(=O)C3COCCN3C2=O)CC1` (relative stereo) [Example 126, 2-[trans-4-({5-[2-(4-fluoro-2,6-dimethylphenoxy)-5-(2-hydroxypropan-2-yl)phenyl]-1-methyl-2-oxo-1,2-dihydropyridin-4-yl}oxy)cyclohexyl]tetrahydro-1H-imidazo[5,1-c][1,4]oxazine-1,3(2H)-dione] was tested. Which Ki did it give?
Answer: > 13 µM

Question: Which Ki does the source give for `Cc1cc(F)cc(C)c1Oc1ccc(C(C)(C)O)cc1-c1cn(C)c(=O)cc1O[C@H]1CC[C@H](N2C(=O)C3CC3C2=O)CC1` (relative stereo) [Example 129, 3-[trans-4-({5-[2-(4-fluoro-2,6-dimethylphenoxy)-5-(2-hydroxypropan-2-yl)phenyl]-1-methyl-2-oxo-1,2-dihydropyridin-4-yl}oxy)cyclohexyl]-3-azabicyclo[3.1.0]hexane-2,4-dione] here?
Answer: 0.772 µM

Question: `Cc1cc(F)cc(C)c1Oc1ccc(C(C)(C)O)cc1-c1cn(C)c(=O)cc1O[C@H]1CC[C@H](N2C(=O)C(C)(C)N(C)C2C)CC1` (relative stereo) [Example 134, 5-[2-(4-fluoro-2,6-dimethylphenoxy)-5-(2-hydroxypropan-2-yl)phenyl]-1-methyl-4-{[trans-4-(2,3,4,4-tetramethyl-5-oxoimidazolidin-1-yl)cyclohexyl]oxy}pyridin-2(1H)-one] was tested. Which Ki did it give?
Answer: 1.67 µM

Question: `CC(=O)NC12CCC(C(=O)N[C@H]3CC[C@H](Oc4cc(=O)n(C)cc4-c4cc(C(C)(C)O)ccc4Oc4c(C)cc(F)cc4C)CC3)(C1)C2` (relative stereo) [Example 137, 4-acetamido-N-[trans-4-({5-[2-(4-fluoro-2,6-dimethylphenoxy)-5-(2-hydroxypropan-2-yl)phenyl]-1-methyl-2-oxo-1,2-dihydropyridin-4-yl}oxy)cyclohexyl]bicyclo[2.1.1]hexane-1-carboxamide] was tested. Which Ki did it give?
Answer: 1.8 µM

Question: For `CC(=O)N[C@H]1CC[C@H](Oc2cc(=O)n(C)cc2-c2cc(C(C)(C)O)cnc2Oc2c(C)cc(F)cc2C)CC1` [Example 1, N-(trans-4-{[2′-(4-fluoro-2,6-dimethylphenoxy)-5′-(2-hydroxypropan-2-yl)-1-methyl-6-oxo[1,6-dihydro[3,3′-bipyridine]]-4-yl]oxy}cyclohexyl)acetamide], which Ki is on record?
Answer: 1.71 µM

Question: For `Cc1cccc(C)c1Oc1ccc(C(C)(C)O)cc1-c1cn(C)c(=O)cc1NC1CCN(S(C)(=O)=O)CC1` [Example 2, 5-[2-(2,6-dimethylphenoxy)-5-(2-hydroxypropan-2-yl)phenyl]-4-{[1-(methanesulfonyl)piperidin-4-yl]amino}-1-methylpyridin-2(1H)-one], which Ki is on record?
Answer: 5.89 µM

Question: `CC(=O)N[C@H]1CC[C@H](Oc2cc(=O)n(C)cc2-c2cc(C(C)(C)O)ccc2Oc2c(C)cc(F)cc2C)CC1` [Example 3, N-[trans-4-({5-[2-(4-fluoro-2,6-dimethylphenoxy)-5-(2-hydroxypropan-2-yl)phenyl]-1-methyl-2-oxo-1,2-dihydropyridin-4-yl}oxy)cyclohexyl]acetamide] was tested. Which Ki did it give?
Answer: 1.02 µM

Question: How did the Ki turn out when `COC(=O)N[C@H]1CC[C@H](Oc2cc(=O)n(C)cc2-c2cc(C(C)(C)O)ccc2Oc2c(C)cc(F)cc2C)CC1` [Example 4, methyl [trans-4-({5-[2-(4-fluoro-2,6-dimethylphenoxy)-5-(2-hydroxypropan-2-yl)phenyl]-1-methyl-2-oxo-1,2-dihydropyridin-4-yl}oxy)cyclohexyl]carbamate] was run?
Answer: 1.45 µM

Question: For `COC(=O)N[C@H]1CC[C@H](Oc2cc(=O)n(C)cc2-c2cc(C(C)(C)O)cnc2Oc2c(C)cc(F)cc2C)CC1` [Example 5, methyl (trans-4-{[2′-(4-fluoro-2,6-dimethylphenoxy)-5′-(2-hydroxypropan-2-yl)-1-methyl-6-oxo[1,6-dihydro[3,3′-bipyridine]]-4-yl]oxy}cyclohexyl)carbamate], which Ki is on record?
Answer: 1.96 µM

Question: How did the Ki turn out when `CC(=O)NC[C@H]1C[C@H](Oc2cc(=O)n(C)cc2-c2cc(C(C)(C)O)ccc2Oc2c(C)cc(F)cc2C)C1` [Example 6, N-{[trans-3-({5-[2-(4-fluoro-2,6-dimethylphenoxy)-5-(2-hydroxypropan-2-yl)phenyl]-1-methyl-2-oxo-1,2-dihydropyridin-4-yl}oxy)cyclobutyl]methyl}acetamide] was run?
Answer: 0.72 µM
